Test results taken from patent US9029332B2, “Cross-linked peptides and proteins, methods of making same, and uses thereof” (The Research Foundation for The State University of New York, priority 2010, dated 2015).
Numbered stars: 1 amine (or outer) side, 2 acyl side, 3 side chain; on linkers, the order of the positions; unused ones are H or OH. Bridge positions count the residues as written; N and C are the ends. Square brackets hold non-standard residues; d marks the D form. Peptide text beside a SMILES is read from it. CH2(3,3'-bipyridine-6,6')CH2 = c1cc(C[*:1])ncc1-c1ccc(C[*:2])nc1

How the values were obtained:
[1] = Circular dichroism, percent helicity; assay type: physicochemical; settings: compared to the linear NoxaBH3 peptide, 50 μM in 20% ACN/H2O
Method: FIG. 12. […] The peptides were dissolved in 20% ACN/H2O for a final concentration of 50 μM.
Circular Dichroism Study. […] The spectra were recorded in the wavelength range of 190-250 nm and averaged over 3 scans with a resolution of 0.5 nm, a bandwidth of 1.0 nm and a response time of 4 s. The sensitivity and the speed of the spectrometer were set to 100 mdeg and 50 nm/min, respectively. All peptides were dissolved in 20% acetonitrile/H2O to reach final concentration of 50 μM.

HeLa cells [2] = assay: Cellular uptake of fluorescein-labeled Noxa peptides by FACS and fluorescence microscopy; assay type: cell-based; settings: 10 μM fluorescein-labeled peptide, 2 hours
Method: FIG. 13. […] (a) Flow cytometry analysis of cell permeability of the FITC-labeled linear or stapled peptide. HeLa cells were treated with 10 μM of fluorescein-labeled peptides in serum-free DMEM medium for 2 hours followed by fixation with formaldehyde. (b) Fluorescent micrographs of HeLa cells treated with 10 μM of fluorescein-labeled (Fl) linear or cross-linked NoxaBH3 peptide. Scale bar=50 μm.
To investigate cellular uptake of the cross-linked peptides, the N-terminal fluorescein-labeled cross-linked NoxaBH3 peptides (5a, 6a, 7a, 8a) and linear peptide Fl-Noxa-(75-93)-C75A were prepared and their uptakes into HeLa cells were examined by both FACS and fluorescence microscopy. […] To examine whether the cross-linked peptides induce apoptosis, Mcl-1-overexpressing Raji cells and K562 cells co-transfected with Mcl-1/BimEL were treated with the cross-linked peptides and the cell viabilities were measured by CellTiter-Glo reagent. […] For the remaining peptides, the following SEQ ID NOs apply: peptide 9a and 10A are SEQ ID NO:17; 11a and 12 a are SEQ ID NO:18; 5c, 5d, 5e, Fluo-5a, Fluo-6a, and Fluo-6b are SEQ ID NO:16; Fluo-NoxaB^75-94-C75A is SEQ ID NO:15; and Fluo-71 is SEQ ID NO:17.

HeLa cells [3] = assay: FACS analysis of cell permeability of fluorescein-conjugated peptides; assay type: cell-based; settings: 10 μM fluorescein-conjugated peptide, 2 h
Method: FACS Analysis. HeLa Cells were cultured in DMEM medium supplemented with 10% fetal bovine serum in 6-well plate in a 37° C., 5% CO2 incubator to reach confluency of around 70%. The cells were then washed twice with PBS before switching to serum-free DMEM medium. After standing in the incubator for 30 minutes, appropriate amounts of peptides (1 mM in DMSO) were added to the culture plate to obtain a final peptide concentration of 10 μM. Cells were incubated at 37° C. for additional 2 hrs. Then the medium was removed and the cells were washed with PBS (3×) followed by treatment with trypsin to detach the cells. After a brief low-speed centrifugation, the HeLa cells were collected and re-suspended in PBS for the FACS analysis.

HeLa cells [4] = assay: Cell viability assay (CellTiter-Glo, ATP) and DIC imaging, cytotoxicity; assay type: cell-based; settings: 10 μM, 2 hours; DIC channel and ATP assay
Method: (§1) FIG. 8. (a) Confocal images of fixed HeLa cells after treatment with 10 μM of fluorescein-conjugated peptides for 2 hours. Scale bar=50 μm. (b) Cell viability assay using the CellTiter-Glo reagent.
Cell Viability Assay. HeLa cells were seeded into an opaque 96-well plate at a density of 1×10^4 per well in 100 μL DMEM medium supplemented with 10% FBS and the cells were allowed to grow in a 37° C. 5% CO2 incubator for 48 hrs to reach confluency of around 80%. Prior to the compound treatment, the medium was replaced with serum-free medium and the cells were incubated for 30 minutes. Appropriate amounts of peptides (1 mM in DMSO) were then added to obtain a final concentration of 10 μM and the cells were incubated at 37° C. for 2 hours. Afterwards, the plate was allowed to stand at room temperature for 30 minutes before 100 μL of Cell-Titer Glow reagent (Promega) was added. The plate was incubated at room temperature for 10 minutes. The luminescence signals were recorded with an FLX 800 luminescence plate reader (BioTek). The plotted data represented the average of the readings from 4 separate wells.

HeLa cells [5] = assay: Confocal microscopy of fixed HeLa cells, cellular fluorescence; assay type: cell-based; settings: 10 μM fluorescein-conjugated peptide, 2 hours
Method: as §1
HeLa Cells were seeded into 35 mm glass bottom microwell dishes (MatTek, Ashland, Mass.) at a density of 3×105 in DMEM medium supplemented with 10% fetal bovine serum, and the cells were allowed to grow in a 37° C. 5% CO2 incubator for 48 hours. After removing medium, the cells were washed twice with PBS and then incubated in serum-free DMEM medium for 30 minutes. Appropriate amounts of peptides (1 mM in DMSO) were then added to obtain a final concentration of 10 μM and cells were incubated at 37° C. for 2 hours. After PBS wash, cells were treated with 4% formaldehyde in PBS for 20 minutes at room temperature. The fixation medium was removed and the cells were washed with PBS (3×) before placing cells into the low florescent mounting medium for fluorescent imaging acquisition.

GST-Mcl-1 [6] = biological target: T1, GST-Mcl-1 (Homo sapiens, UniProt Q07820); assay: FP binding affinity of fluorescein-labeled peptides, Mcl-1; settings: FP assay, fluorescein-labeled peptide
GST-Bcl-xL = GST-Bcl-xL (Homo sapiens, UniProt Q07817); assay: FP binding affinity of fluorescein-labeled peptides, Bcl-xL; settings: FP assay, fluorescein-labeled peptide; read-out: GST-Bcl-xL Kd
Mcl-1 = Mcl-1 (Homo sapiens, UniProt Q07820); assay: ELISA of cross-linked Noxa peptides; assay type: binding
GST-Mcl-1 [7] = biological target: T1, GST-Mcl-1; assay: Competitive fluorescence polarization assay; assay type: binding
Method: Competitive Florescence Polarization Assay. The binding affinity of the Noxa peptides toward GST-Mcl-1 was determined in a competitive fluorescence polarization assay with the fluorescein-labeled Bak or Bim. Briefly, fluorescein-labeled Bak was incubated with GST-Mcl-1 in a binding buffer (PBS, 0.005% Tween-20, pH7.4) at room temperature in a 96-well microtiter plate. […] The reading was repeated at various time points to ensure that the competition has reached equilibrium.

T1 sequence (Q07820 whole entry): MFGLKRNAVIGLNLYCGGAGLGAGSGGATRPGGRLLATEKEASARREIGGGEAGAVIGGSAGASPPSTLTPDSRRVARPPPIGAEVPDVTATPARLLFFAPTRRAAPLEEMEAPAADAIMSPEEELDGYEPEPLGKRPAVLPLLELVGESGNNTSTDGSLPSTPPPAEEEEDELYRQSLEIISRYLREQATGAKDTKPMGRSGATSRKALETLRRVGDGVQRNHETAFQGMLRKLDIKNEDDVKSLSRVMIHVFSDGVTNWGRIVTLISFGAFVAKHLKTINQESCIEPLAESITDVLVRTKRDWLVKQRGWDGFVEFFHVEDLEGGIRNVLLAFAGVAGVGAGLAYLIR
GST-Bcl-xL, sequence (Q07817 whole entry): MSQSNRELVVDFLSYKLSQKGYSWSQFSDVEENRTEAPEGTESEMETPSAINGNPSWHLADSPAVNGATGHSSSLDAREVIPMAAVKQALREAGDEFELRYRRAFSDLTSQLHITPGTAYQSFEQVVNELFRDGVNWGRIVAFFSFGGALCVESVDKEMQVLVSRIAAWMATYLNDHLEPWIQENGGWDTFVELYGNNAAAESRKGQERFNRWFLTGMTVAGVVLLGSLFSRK
Mcl-1, sequence (Q07820 whole entry, species assumed): as the sequence (Q07820 whole entry) above

**Q.** Which “enhancement in percent helicity” value [1] does the source give for CC[C@H](C)[C@@H]1NC(=O)[C@H](CCCNC(=N)N)NC(=O)[C@H](CCCNC(=N)N)NC(=O)[C@H](CC(C)C)NC(=O)[C@@](C)(NC(=O)[C@H](C)NC(=O)[C@H](C)NC(C)=O)CSCc2ccc(cc2)-c2ccc(cc2)CSC[C@@](C)(C(=O)N[C@H](C(=O)N[C@@H](CC(N)=O)C(=O)N[C@@H](CC(C)C)C(=O)N[C@@H](CCCNC(=N)N)C(=O)N[C@@H](CCC(N)=O)C(=O)N[C@@H](CCCCN)C(=O)N[C@@H](CC(C)C)C(=O)N[C@@H](CC(C)C)C(=O)N[C@@H](CC(N)=O)C(N)=O)C(C)C)NC(=O)[C@H](CC(=O)O)NC(=O)CNC1=O [Peptide 8a] here?
**A.** Its value is roughly 3 fold.

**Q.** And the cellular uptake (HeLa cells [2])?
**A.** Its cellular uptake is “robust uptakes”.

**Q.** Which results are given for CC(=O)N[C@@H](CC(C)C)C(=O)N[C@H](C(=O)N[C@@H](Cc1ccccc1)C(=O)N[C@H]1CSCc2ccc(cn2)-c2ccc(nc2)CSC[C@@H](C(=O)N[C@@H](CO)C(N)=O)NC(=O)[C@H](CC(C)C)NC(=O)[C@H](CCCNC(=N)N)NC(=O)[C@H](C)NC(=O)[C@H](Cc2c[nH]c3ccccc23)NC(=O)[C@H](Cc2ccc(O)cc2)NC(=O)[C@H](CCCNC(=N)N)NC1=O)[C@@H](C)O [Peptide 2b, LTFC″RYWARLC″S] (Ac-LTFCRYWARLCS-NH2; linker 4-11 via CH2(3,3'-bipyridine-6,6')CH2)?
**A.** increase in mean fluorescence / permeability by arginine substitution (HeLa cells [3]; compared to charge-neutral counterpart): 2 fold; increase in mean fluorescence by Bpy cross-linking (HeLa cells [3]; over linear counterpart): ~5 fold; cytotoxicity (HeLa cells [4]): apparent cytotoxicity; cellular fluorescence, FITC channel (HeLa cells [5]): strongest cellular fluorescence

**Q.** For CC[C@H](C)[C@@H]1NC(=O)[C@H](CCCNC(=N)N)NC(=O)[C@H](CCCNC(=N)N)NC(=O)[C@H](CC(C)C)NC(=O)[C@@H](NC(=O)[C@H](C)NC(=O)[C@H](C)NC(=O)CCCCCNC(=S)Nc2ccc3c(c2)C(=O)OC32c3ccc(O)cc3Oc3cc(O)ccc32)CSCc2ccc(cc2)-c2ccc(cc2)CSC[C@@H](C(=O)N[C@H](C(=O)N[C@@H](CC(N)=O)C(=O)N[C@@H](CC(C)C)C(=O)N[C@@H](CCCNC(=N)N)C(=O)N[C@@H](CCC(N)=O)C(=O)N[C@@H](CCCCN)C(=O)N[C@@H](CC(C)C)C(=O)N[C@@H](CC(C)C)C(=O)N[C@@H](CC(N)=O)C(N)=O)C(C)C)NC(=O)[C@H](CC(=O)O)NC(=O)CNC1=O [Fl-5a], which Kd (GST-Mcl-1 [6]) is on record?
**A.** The Kd was 0.8 ± 0.1 nM.

**Q.** What about the Kd (GST-Bcl-xL) of the same compound?
**A.** The Kd was greater than 2000 nM.

**Q.** With CC(=O)N[C@@H](CC(C)C)C(=O)N[C@H](C(=O)N[C@@H](Cc1ccccc1)C(=O)N[C@@H]1CSCc2ccc(cn2)-c2ccc(nc2)CSC[C@@H](C(=O)N[C@@H](CO)C(N)=O)NC(=O)[C@H](CC(C)C)NC(=O)[C@H](CCCNC(=N)N)NC(=O)[C@H](C)NC(=O)[C@H](Cc2c[nH]c3ccccc23)NC(=O)[C@H](Cc2ccc(O)cc2)NC(=O)[C@H](CCCNC(=N)N)NC1=O)[C@@H](C)O [Peptide 4b, LTFc″RYWARLC″S] (Ac-LTF[dC]RYWARLCS-NH2; linker 4-11 via CH2(3,3'-bipyridine-6,6')CH2; C-terminus assumed) as the compound, how does the cytotoxicity (HeLa cells [4]) read?
**A.** Its cytotoxicity is “apparent cytotoxicity”.

**Q.** And the “cellular fluorescence, FITC channel” value (HeLa cells [5])?
**A.** The value was “strongest cellular fluorescence”.

**Q.** With CC[C@H](C)[C@@H]1NC(=O)[C@H](CCCNC(=N)N)NC(=O)[C@H](CCCNC(=N)N)NC(=O)[C@H](CC(C)C)NC(=O)[C@H](NC(=O)[C@H](C)NC(=O)[C@H](C)NC(=O)CCCCCNC(=S)Nc2ccc3c(c2)C(=O)OC32c3ccc(O)cc3Oc3cc(O)ccc32)CSCc2ccc(cc2)-c2ccc(cc2)CSC[C@@H](C(=O)N[C@H](C(=O)N[C@@H](CC(N)=O)C(=O)N[C@@H](CC(C)C)C(=O)N[C@@H](CCCNC(=N)N)C(=O)N[C@@H](CCC(N)=O)C(=O)N[C@@H](CCCCN)C(=O)N[C@@H](CC(C)C)C(=O)N[C@@H](CC(C)C)C(=O)N[C@@H](CC(N)=O)C(N)=O)C(C)C)NC(=O)[C@H](CC(=O)O)NC(=O)CNC1=O [Fl-6a] as the compound, how does the Kd (GST-Mcl-1 [6]) read?
**A.** The Kd was 0.7 ± 0.1 nM.

**Q.** What about the Kd (GST-Bcl-xL) of the same compound?
**A.** The Kd was greater than 2000 nM.

**Q.** Which results are given for CC[C@H](C)[C@@H]1NC(=O)[C@H](CCCNC(=N)N)NC(=O)[C@H](CCCNC(=N)N)NC(=O)[C@H](CC(C)C)NC(=O)[C@H](NC(=O)[C@H](C)NC(=O)[C@H](C)NC(C)=O)CSCc2ccc(cc2)-c2ccc(cc2)CSC[C@@H](C(=O)N[C@H](C(=O)N[C@@H](CC(N)=O)C(=O)N[C@@H](CC(C)C)C(=O)N[C@@H](CCCNC(=N)N)C(=O)N[C@@H](CCC(N)=O)C(=O)N[C@@H](CCCCN)C(=O)N[C@@H](CC(C)C)C(=O)N[C@@H](CC(C)C)C(=O)N[C@@H](CC(N)=O)C(N)=O)C(C)C)NC(=O)[C@H](CC(=O)O)NC(=O)CNC1=O [Peptide 6a]?
**A.** IC50 (Mcl-1): 260 nM; IC50 (GST-Mcl-1 [7]; Noxa peptides, three repeats ± SD, read-out: FP, IC50): 73 ± 18 nM; increase in activity in FPA (GST-Mcl-1 [7]; compared to the parent linear peptide): 37 fold; enhancement in percent helicity [1]: roughly 2 fold; cellular uptake (HeLa cells [2]): robust uptakes
